GI50 and TGI data for 26 molecules are collected here from PubChem BioAssay (NCI).

Structures are written as SMILES. Values joined by “and” are separate entries in the source; they are usually repeats but may differ in a detail not shown here. Identical values can stand only once.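 Results reflect a 48-hour exposure of cells in 96-well plates to compound at five concentrations. At the GI50, growth is halved. The concentration for full growth arrest is given as TGI.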

Common to all, as to test: NCI anticancer screen, dose series, 48 h
For assay [1], the system named is HCT-116 colon.
In assay [2] the test system is SK-MEL-2 melanoma.
Assay [3] concerns SK-MEL-5 melanoma.
Assay [4] deals with UACC-62 melanoma.
For assay [5], the system named is SF-268 CNS.
For assay [6], the system named is UO-31 renal.
Assay [7] has as its system OVCAR-4 ovarian.
For assay [8], the system named is IGROV1 ovarian.
Assay [9] deals with KM12 colon.
In assay [10] the test system is M14 melanoma.

Regarding `CCOc1c(Cl)cc(CNC(C)C(O)c2ccccc2)cc1OC` (stereo unspecified), the GI50 in assay [1] was 19.2 µM; in assay [2] it was 21.4 µM; in assay [3], 16.6 µM; in assay [4], 17.9 µM; in assay [5], 42.1 µM; in assay [6], 18 µM. The GI50 in assay [7] is 21.6 µM; in [8], 70.6 µM; in assay [9] it was 22.5 µM. In addition, the TGI was 43.1 µM in assay [1]; 39 µM in assay [2]; 30.6 µM in assay [3]; 38.9 µM in assay [4]; over 100 µM in assay [5]; 89.6 µM in [6]. Further, the TGI in [7] was 87.4 µM; in [8] it was over 100 µM; in assay [9] it was 49.2 µM.
For the molecule `S=c1nc(-c2cccnc2)[nH][nH]1`, the TGI in assay [1] was over 100 µM; in assay [2], over 100 µM; in [3], over 100 µM; in [5], over 100 µM; in assay [7] it was over 1 µM; in assay [9], over 100 µM. In addition, the TGI in assay [10] is over 100 µM.
As to `c1cc(CNC2C3CCC(C3)C2c2c[nH]c3ccccc23)cc(CNC2C3CCC(C3)C2c2c[nH]c3ccccc23)c1` (stereo unspecified), the TGI was 3.11 µM in assay [2]; 3.29 µM in assay [3]; 3.04 µM in assay [4]; 3.24 µM and 3.34 µM in [7]; 2.69 µM in assay [8]; 4.04 µM in assay [9]. In addition, in [10], the TGI amounted to 5.3 µM.
`Cc1nn(-c2ccccc2)c(-c2ccccc2[N+](=O)[O-])c1CC#N`: the TGI in assay [2], in [3], in assay [4], in assay [5], in assay [6] and in assay [7] was over 100 µM throughout. For the same molecule, the TGI in assay [8], in [9] and in [10] was over 100 µM throughout.
In the case of `CCOC(=O)c1cc(/C=C/C(C)=C/C(=O)OC)n(C)c1C`, the TGI in [3], in assay [4], in assay [5], in assay [6], in [7] and in assay [8] was over 100 µM in each case. Besides, the TGI in assay [9] and in [10] was over 100 µM each time.
For the molecule `COc1cc(Br)c(C=Nc2cccc3ccc(OS(=O)(=O)c4cccc([N+](=O)[O-])c4)cc23)cc1OC`, the TGI in assay [1], in [2], in assay [3], in assay [4], in [5] and in [6] was over 100 µM throughout. Also, the TGI in assay [7], in [8] and in assay [9] was over 100 µM each time.
On to `COc1ccc(/C=C2\C(=O)N(C(=O)Cc3ccccc3)N=C2C)cc1OC`, for which the TGI in assay [1], in assay [2], in [5], in [6], in [7] and in assay [9] was over 100 µM in each case. The TGI in [10] is over 100 µM.
As to `O=C1C2Cc3ccccc3CN2C(=O)N1CCN1CCCC1` (stereo unspecified), the TGI in [2], in assay [3], in assay [4], in assay [5], in [6] and in assay [7] was over 100 µM each time. In addition, the TGI in assay [8], in assay [9] and in assay [10] was over 100 µM each time.
On to `CCOC(=O)CC1NC(=O)CS1` (stereo unspecified), for which the TGI in assay [1] was 61.7 µM; in [3] it was over 100 µM; in assay [4], over 100 µM; in assay [5] it was over 100 µM; in assay [6], over 100 µM; in [7], over 100 µM. Further, the TGI in assay [8], in assay [9] and in assay [10] was over 100 µM throughout.
For the molecule `BrC1(Br)C2/C=C\CCCCC21` (stereo unspecified), the TGI in assay [1], in assay [2], in assay [5], in [7], in [8] and in assay [9] was over 100 µM each time.
`COC(=O)C1=C(C(=O)OC)SC(=C(Cl)C(=S)Sc2ccccc2N)S1`: the GI50 is 13.2 µM in [1]; 14.2 µM in assay [2]; 19.9 µM in assay [3]; 19.9 µM in assay [4]; 29.1 µM in assay [5]; 27 µM in assay [6]. The results for the GI50 in assay [7], in assay [9] and in assay [10] were 80.8 µM, over 100 µM and 7.35 µM, respectively. Moreover, the TGI in assay [1] is 27.7 µM; in [2], 43.6 µM; in assay [3], 49.2 µM; in [4] it was 78.4 µM; in assay [5] it was 68.7 µM; in assay [6], over 100 µM. The TGI in [7] is over 100 µM; in assay [9], over 100 µM; in [10], 30.3 µM.
For the molecule `O=C1CCC(O)=C1O`, the TGI in assay [1], in assay [2], in [3], in assay [4], in assay [5] and in assay [7] was over 100 µM each time. Also, the TGI in assay [8], in [9] and in assay [10] was over 100 µM each time.
Consider `C[C-](O)O.O/C(=C\[C-](O)c1ccccc1)c1ccccc1.O/C(=C\[C-](O)c1ccccc1)c1ccccc1.[Nd+3]` (stereo unspecified), for which the GI50 in assay [1] was 4.24 µM; in assay [2] it was 13.1 µM; in assay [3], 5.22 µM; in assay [4], 6.56 µM; in [5], 6.44 µM; in [6], 3.73 µM. Moreover, the GI50 was 15.9 µM in assay [7], 14.1 µM in [8] and 14.6 µM in assay [10]. Moreover, the TGI was determined as 16.5 µM in assay [1]; 34.4 µM in assay [2]; 18 µM in assay [3]; 45.3 µM in assay [4]; 32.5 µM in assay [5]; 16 µM in assay [6]. Further, the values for the TGI in [7], in [8] and in assay [10] were over 100 µM, over 100 µM and 33.8 µM, respectively.
`Cc1c2cc[n+](C)cc2c(C)c2c1[nH]c1ccc(O)c(OCC(F)(F)F)c12`: the TGI in [1] came out at 12.1 µM; in [2], 17.6 µM; in [3], 11.6 µM; in assay [4], 25.2 µM; in assay [5], 1.1 µM; in [6], 25.6 µM. Moreover, the TGI in [7] was 12.8 µM; in assay [8], 23.1 µM; in assay [10], 15.7 µM.
On to `O=c1[nH]c(=O)n(C2OC3COC2C3O)cc1F` (stereo unspecified), for which the TGI in assay [2], in assay [3], in assay [5], in assay [6], in [7] and in assay [9] was over 100 µM each time. This molecule showed a TGI in assay [10] of over 100 µM.
`N.N.N.N.N.N.O=N[O-].[Br-].[Co+3].[Co+3].[OH3+].[OH3+]`: the GI50 in [2], in assay [4], in assay [5], in assay [6], in [8] and in assay [9] was over 100 µM each time. Also, in assay [10], the GI50 was over 100 µM. Also, the TGI in assay [2], in assay [4], in assay [5], in assay [6], in [8] and in assay [9] was over 100 µM throughout. This molecule also registered a TGI in [10] of over 100 µM.
For `CN1C(=O)C(Cl)(C(Cl)(Cl)S(=O)(=O)O)C(=O)c2ccccc21` (stereo unspecified), the TGI in assay [1], in assay [3], in assay [4], in [5], in assay [6] and in [7] was over 100 µM in each case. In addition, the TGI in [8], in assay [9] and in assay [10] was over 100 µM in each case.
Take `Cc1ccc(S(=O)(=O)N=Nc2c(O)[nH]c3c(Cl)cc(Cl)cc23)cc1`: the TGI in [1], in assay [2], in assay [3], in [4], in assay [6] and in assay [7] was over 100 µM throughout. For the same molecule, the TGI in [8], in assay [9] and in [10] was over 100 µM in each case.
Regarding `Cc1cc2c(=O)c3ccccc3[nH]c2c(C(=O)O)c1C`, the TGI in assay [1] is over 100 µM; in assay [2], over 100 µM; in assay [4], over 100 µM; in [6], 87.5 µM; in assay [7] it was over 100 µM; in assay [8], over 100 µM. The same molecule had a TGI in [9] of over 100 µM.
`Cc1c(Cl)cccc1NC(=O)CC1C(=O)Nc2ccccc2S1(=O)=O` (stereo unspecified): the TGI in assay [1] amounted to 30.3 µM; in assay [2] it was 45.9 µM; in [3], 26.7 µM; in [4] it was 31.7 µM; in assay [5] it was 38.2 µM; in assay [6] it was 32.1 µM. The TGI was determined as 67.2 µM in assay [7], 31.7 µM in assay [8] and 29.3 µM in [10].
For `CC(=O)Nc1ccc(S(=O)(=O)NNC(=O)c2cccnc2Nc2ccc(Cl)cc2)cc1`, the GI50 in [1] was 7.22 µM; in assay [3], 5.68 µM; in assay [4] it was 8.85 µM; in assay [5], 22 µM; in assay [6] it was 91.5 µM; in assay [7] it was 44.9 µM. Also, the GI50 in assay [8] was 27.3 µM; in assay [9], 4.19 µM; in assay [10] it was 11.5 µM. The TGI in assay [1], in [3], in assay [4], in assay [5], in assay [6] and in [7] was over 100 µM each time. The TGI in assay [8], in assay [9] and in assay [10] was over 100 µM each time.
For the molecule `N#CC(NNC(=O)c1ccccc1O)c1cccc(O)c1` (stereo unspecified), the TGI was over 100 µM in [1]; over 100 µM in [2]; over 100 µM in assay [3]; over 100 µM in assay [5]; 5.63 µM in [6]; over 100 µM in assay [7]. Further, the TGI in [8], in assay [9] and in assay [10] was over 100 µM each time.
`COC1CC(OC(=O)c2ccccc2)C(OC(=O)c2ccccc2)C(C)O1` (stereo unspecified): the TGI in assay [1], in assay [2], in assay [3], in [4], in assay [5] and in [6] was over 100 µM in each case. For the same molecule, the TGI in [8], in assay [9] and in assay [10] was over 100 µM throughout.
Consider `CC(=O)OC1[C@H]2c3cc4c(cc3CN3CCC(=C[C@@H]1O)C23)OCO4` (stereo partly specified), for which the TGI in [4], in assay [5], in assay [6], in assay [8], in [9] and in [10] was over 100 µM each time.
Regarding `CCCCCCN(CCCCCC)CC(O)c1ccc2c3c(cccc13)CC2` (stereo unspecified), the GI50 in assay [1] was 1.68 µM; in [2] it was 11 µM; in assay [3], 4.74 µM; in assay [4], 4.4 µM; in assay [5], 12 µM; in assay [6], 3.09 µM. In addition, the GI50 in [7] was 10.3 µM; in assay [9] it was 5.3 µM; in assay [10], 3.95 µM. The TGI in [1] worked out at 13.2 µM; in assay [2], 24.7 µM; in [3] it was 17.9 µM; in assay [4], 17.5 µM; in assay [5], 24.9 µM; in assay [6] it was 17.3 µM. Moreover, the TGI in [7] came out at 36.8 µM; in [9], 18.9 µM; in [10] it was 17 µM.
Turning to `COc1ccc(CN2c3ccccc3CCc3ccccc32)cc1F`, the GI50 is 0.413 µM in [1]; 0.522 µM in [3]; 0.804 µM in assay [4]; 0.66 µM in assay [5]; 0.814 µM in assay [6]; 0.868 µM in assay [7]. The GI50 is 1.57 µM in assay [8], 0.387 µM in assay [9] and 0.354 µM in assay [10]. Further, the TGI in assay [1] is over 100 µM; in assay [3], 14.2 µM; in assay [4], over 100 µM; in assay [5], over 100 µM; in [6] it was over 100 µM; in [7], over 100 µM. For the same molecule, the TGI in assay [8], in assay [9] and in [10] was over 100 µM each time.
